From patent US5317101A, “Tricyclic heterocycles” (Imperial Chemical Industries PLC, priority 1991, dated 1994)

Tests used:
[1] = tested on: PGE2 receptors; details: guinea pig ileum or dog fundus; cited from earlier work
[2] = molecular target: T1, EP1 receptors (PGE2 -induced contractions of the ileum) (Cavia porcellus, UniProt A0A286XHJ6); assay: Test (a): in-vitro guinea pig ileum assay, inhibition of PGE2-induced contractions; format: cell-based; details: PGE2-induced contraction, read-out: pA2 value (converted)
T1 construct: ileum was immersed in oxygenated Krebs solution; from tissue; host or cells: guinea pig ileum
T1 sequence (A0A286XHJ6 1-405): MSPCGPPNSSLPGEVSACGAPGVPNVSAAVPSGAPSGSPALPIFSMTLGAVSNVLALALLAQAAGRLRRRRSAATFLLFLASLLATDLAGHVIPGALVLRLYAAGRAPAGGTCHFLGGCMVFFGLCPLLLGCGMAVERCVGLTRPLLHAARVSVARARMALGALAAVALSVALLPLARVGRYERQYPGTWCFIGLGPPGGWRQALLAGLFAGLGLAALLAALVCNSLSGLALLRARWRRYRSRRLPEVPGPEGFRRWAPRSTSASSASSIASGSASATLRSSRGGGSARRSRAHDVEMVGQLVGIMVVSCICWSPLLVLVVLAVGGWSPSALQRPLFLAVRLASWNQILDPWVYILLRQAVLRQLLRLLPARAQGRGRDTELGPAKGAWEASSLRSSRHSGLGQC
Description: (a) an in-vitro guinea pig ileum assay which assesses the inhibitory properties of a test compound against PGE2 -induced contractions of the ileum; ileum was immersed in oxygenated Krebs solution containing indomethacin (4 μg/ml) and atropine (1 μM) and which was maintained at 37° C.; the ileum was subject to a tension of 1 g; a control dose response curve for PGE2 -induced contraction of the ileum was obtained; test compound (dissolved in dimethylsulphoxide) was added to the Krebs solution and a dose response curve for the PGE2 - induced contraction of the ileum in the presence of the test compound was obtained; the pA2 value for the test compound was calculated;
Prostanoid receptors and in particular receptors for PGE2 have been tentatively characterised by Kennedy et al. (Advances in Prostaglandin, Thromboxane and Leukotriene Research, 1983, 11, 327).

[3] = tested on: abdominal constriction induced by the intraperitoneal administration of phenylbenzoquinone; assay: Test (b): in-vivo assay in mice, PBQ-induced abdominal constriction; details: 100 mg/kg, oral dosing
Source text: (b) an in-vivo assay in mice which assesses the inhibitory properties of a test compound against abdominal constriction induced by the intraperitoneal administration of phenylbenzoquinone (hereinafter PBQ) using the procedure disclosed in European Patent Application No. 0218077.

Structure (SMILES)	effect on PGE2 action [1]	Kb [2] [nM]	activity in Test (b) [3]
CC(=O)NNC(=O)N1Cc2ccccc2Oc2ccc(Cl)cc21 [SC-19220]	blocks the effect of PGE2	–	–
O=C(O)c1ccc(CN2Cc3ccccc3Oc3ccc(Cl)cc32)s1 [5-(8-chloro-10,11-dihydrodibenzo[b,f][1,4]oxazepin-10-ylmethyl)thiophene-2-carboxylic acid]	–	31.6	–
O=C(O)c1ccc(CN2Cc3ccccc3Nc3ccccc32)s1 [5-(10,11-dihydrodibenzo[b,e][1,4]diazepin-10-ylmethyl)thiophene-2-carboxylic acid]	–	25.1	significant activity
